In article PMC11021760, “Quantum-assisted fragment-based automated structure generator (QFASG) for small molecule design: an in vitro study” (Frontiers in Chemistry, 2024):

Tests used:
Assay type in all cases: biochemical
CaMKK2 (h) = target: T1, CaMKK2 (h) (Homo sapiens, UniProt Q96RR4); experiment: CAMKK2 kinase activity assay (DiscoverX/Eurofins, radiometric [gamma-33P]-ATP); settings: ATP concentration of 10 µM
T1 construct: purchased DiscoverX/Eurofins
Procedure: The assay is available as a product of DiscoverX/Eurofins. CaMKK2 (h) was incubated with 20 mM Tris/HCl pH 8.5, 0.2 mM EDTA, 0.5% BSA, 0.5 mM CaCl2, 0.016 mg/mL calmodulin, 150 µM […], 10 mM MgAcetate and [gamma-33P]-ATP (specific activity and concentration of 10 µM). The reaction was initiated by the addition of the Mg/ATP mix. After incubation for 40 min 13 at room temperature, the reaction was stopped by the addition of phosphoric acid to a concentration of 0.5%. An aliquot of the reaction was then spotted onto a filter and washed four times for 4 min in 0.425% phosphoric acid and once in methanol prior to drying and scintillation counting.

ATM (h) = target: T2, ATM (h) (Homo sapiens, UniProt Q13315); experiment: ATM kinase activity assay (DiscoverX/Eurofins, HTRF); settings: ATP 10 µM; for remaining activity at 10 µM: compound at 10 μM, read-out: ATM residual activity at 10μM
T2 construct: purchased DiscoverX/Eurofins
Procedure: (§1) The assay is available as a product of DiscoverX/Eurofins. ATM (h) was incubated in assay buffer containing 30 nM GST-cMyc-p53 and Mg/ATP (concentration of 10 µM). The reaction is initiated by the addition of the Mg/ATP mix. After incubation for 30 min at room temperature, the reaction was stopped by the addition of stop solution containing EDTA. Finally, detection buffer was added, which contained a d2-labelled anti-GST monoclonal antibody and a europium-labelled anti-phospho Ser15 antibody against phosphorylated p53. The plate was then read in time-resolved fluorescence mode, and the homogeneous time-resolved fluorescence (HTRF) signal is determined according to the formula HTRF = 10000 x (Em665 nm/Em620 nm).

DNA-PK (h) = target: T3, DNA-PK (h) (Homo sapiens, UniProt P78527); experiment: DNA-PK kinase activity assay (DiscoverX/Eurofins, HTRF); settings: ATP 10 µM
T3 construct: purchased DiscoverX/Eurofins
Procedure: as §1, with “DiscoverX/Eurofins. DNA-PK” for “DiscoverX/Eurofins. ATM”, “containing 50” for “containing 30”, “plate is” for “plate was”, “= 10,000 ×” for “= 10000 x”

ATR/ATRIP (h) = target: T4, ATR/ATRIP (h) (Homo sapiens, UniProt Q13535); experiment: ATR kinase activity assay (DiscoverX/Eurofins, HTRF); settings: ATP 10 µM
T4 construct: purchased DiscoverX/Eurofins
Procedure: as §1, with “DiscoverX/Eurofins. ATR/ATRIP” for “DiscoverX/Eurofins. ATM”, “containing 50” for “containing 30”, “reaction was” for “reaction is”, “plate is” for “plate was”, “signal was” for “signal is”, “= 10,000 ×” for “= 10000 x”

T2 sequence (Q13315 whole entry): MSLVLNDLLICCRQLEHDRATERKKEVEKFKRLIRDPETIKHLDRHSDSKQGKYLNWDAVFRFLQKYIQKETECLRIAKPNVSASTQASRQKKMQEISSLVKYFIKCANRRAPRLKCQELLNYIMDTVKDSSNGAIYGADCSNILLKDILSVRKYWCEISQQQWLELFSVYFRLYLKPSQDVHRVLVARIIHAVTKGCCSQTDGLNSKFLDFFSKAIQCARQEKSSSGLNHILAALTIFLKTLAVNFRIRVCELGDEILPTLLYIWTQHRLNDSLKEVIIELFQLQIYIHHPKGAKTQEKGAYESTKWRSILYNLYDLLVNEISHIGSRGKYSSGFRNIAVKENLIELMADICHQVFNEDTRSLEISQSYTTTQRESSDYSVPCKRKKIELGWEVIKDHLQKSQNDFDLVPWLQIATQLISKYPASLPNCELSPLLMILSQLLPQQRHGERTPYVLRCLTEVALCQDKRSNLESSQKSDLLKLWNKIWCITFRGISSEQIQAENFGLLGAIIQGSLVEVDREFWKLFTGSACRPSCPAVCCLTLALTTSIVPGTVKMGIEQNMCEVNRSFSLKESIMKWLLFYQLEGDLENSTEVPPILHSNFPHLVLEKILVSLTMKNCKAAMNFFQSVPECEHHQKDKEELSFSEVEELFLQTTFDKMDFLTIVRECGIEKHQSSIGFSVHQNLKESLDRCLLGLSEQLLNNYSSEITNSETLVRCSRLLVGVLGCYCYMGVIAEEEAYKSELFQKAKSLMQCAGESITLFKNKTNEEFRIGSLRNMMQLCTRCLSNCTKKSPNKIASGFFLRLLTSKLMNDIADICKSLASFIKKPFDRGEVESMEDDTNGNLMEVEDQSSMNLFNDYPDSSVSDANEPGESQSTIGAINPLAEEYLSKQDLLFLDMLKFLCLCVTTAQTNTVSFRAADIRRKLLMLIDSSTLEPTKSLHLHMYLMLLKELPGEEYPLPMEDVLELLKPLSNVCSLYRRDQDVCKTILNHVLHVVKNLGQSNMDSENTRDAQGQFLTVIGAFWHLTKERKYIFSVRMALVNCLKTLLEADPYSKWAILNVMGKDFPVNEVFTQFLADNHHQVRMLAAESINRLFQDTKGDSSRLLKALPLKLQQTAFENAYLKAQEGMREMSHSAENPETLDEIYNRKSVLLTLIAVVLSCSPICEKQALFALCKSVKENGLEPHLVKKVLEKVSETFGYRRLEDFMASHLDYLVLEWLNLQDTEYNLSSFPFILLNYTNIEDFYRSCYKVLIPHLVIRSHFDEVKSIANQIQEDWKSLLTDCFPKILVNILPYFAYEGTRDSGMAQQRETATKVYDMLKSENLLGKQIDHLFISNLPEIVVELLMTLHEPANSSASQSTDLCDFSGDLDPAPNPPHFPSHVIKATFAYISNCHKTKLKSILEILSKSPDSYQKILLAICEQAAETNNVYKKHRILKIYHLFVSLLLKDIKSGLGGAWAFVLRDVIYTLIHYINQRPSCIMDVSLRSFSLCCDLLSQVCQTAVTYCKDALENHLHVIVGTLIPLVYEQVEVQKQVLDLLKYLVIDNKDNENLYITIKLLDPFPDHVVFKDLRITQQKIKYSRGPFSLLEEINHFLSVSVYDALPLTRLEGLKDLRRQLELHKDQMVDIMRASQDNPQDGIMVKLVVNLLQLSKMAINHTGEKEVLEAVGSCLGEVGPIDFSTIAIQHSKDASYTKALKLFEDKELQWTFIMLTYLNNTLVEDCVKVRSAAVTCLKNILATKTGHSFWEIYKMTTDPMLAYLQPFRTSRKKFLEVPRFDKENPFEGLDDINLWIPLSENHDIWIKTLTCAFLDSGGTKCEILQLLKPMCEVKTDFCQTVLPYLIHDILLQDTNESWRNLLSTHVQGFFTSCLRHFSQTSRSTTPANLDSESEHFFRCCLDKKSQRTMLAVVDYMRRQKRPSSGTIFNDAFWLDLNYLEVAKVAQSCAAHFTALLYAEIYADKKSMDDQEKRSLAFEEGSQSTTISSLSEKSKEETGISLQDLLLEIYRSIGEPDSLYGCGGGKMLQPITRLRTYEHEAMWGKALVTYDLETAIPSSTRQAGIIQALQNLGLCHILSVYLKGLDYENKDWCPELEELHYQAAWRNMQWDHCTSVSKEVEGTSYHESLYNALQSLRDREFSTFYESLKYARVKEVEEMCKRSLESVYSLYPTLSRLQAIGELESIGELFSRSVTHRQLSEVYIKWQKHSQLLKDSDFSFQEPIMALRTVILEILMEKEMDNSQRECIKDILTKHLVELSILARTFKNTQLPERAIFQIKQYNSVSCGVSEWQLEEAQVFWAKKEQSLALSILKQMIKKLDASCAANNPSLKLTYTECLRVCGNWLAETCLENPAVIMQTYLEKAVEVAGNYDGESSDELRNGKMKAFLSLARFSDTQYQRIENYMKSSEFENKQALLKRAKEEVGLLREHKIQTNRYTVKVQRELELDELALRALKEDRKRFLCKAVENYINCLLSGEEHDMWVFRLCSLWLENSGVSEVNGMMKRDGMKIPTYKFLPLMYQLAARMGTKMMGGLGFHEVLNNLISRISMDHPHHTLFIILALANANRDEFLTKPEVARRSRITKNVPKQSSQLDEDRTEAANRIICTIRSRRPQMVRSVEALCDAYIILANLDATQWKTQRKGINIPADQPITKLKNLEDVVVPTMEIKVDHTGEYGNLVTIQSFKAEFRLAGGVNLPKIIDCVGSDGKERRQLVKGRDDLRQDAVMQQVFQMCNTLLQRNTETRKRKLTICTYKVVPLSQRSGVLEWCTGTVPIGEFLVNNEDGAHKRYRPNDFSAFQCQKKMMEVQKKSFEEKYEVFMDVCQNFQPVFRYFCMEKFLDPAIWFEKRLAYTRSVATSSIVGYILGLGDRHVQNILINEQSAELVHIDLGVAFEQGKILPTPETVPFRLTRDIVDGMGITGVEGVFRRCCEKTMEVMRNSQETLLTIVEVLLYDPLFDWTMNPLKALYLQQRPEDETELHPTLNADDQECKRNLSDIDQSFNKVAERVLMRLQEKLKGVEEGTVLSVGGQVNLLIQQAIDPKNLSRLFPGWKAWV

| IC50 (CaMKK2 (h)) [µM] | hill slope (CAMKK2 dose-response) (CaMKK2 (h)) | remaining activity at 10 µM (ATM (h)) [%] | also measured | SMILES |
| --- | --- | --- | --- | --- |
| 6 | −1.05 | – | – | CNC(=O)Nc1ccc(-c2ccn3ncc(-c4c[nH]c(C#N)n4)c3n2)cc1 [QFASG-3] |
| – | – | 71 | – | Cn1cc(-c2ccc3ncc(NC(=O)Nc4cccc(F)c4F)cc3c2)cn1 [QFASG-5] |
| – | – | 31 | IC50 (ATM (h)): 4 µM; hill slope (ATM dose-response) (ATM (h)): −1.1; IC50 (DNA-PK (h)): 8 µM; hill slope (DNA-PK dose-response) (DNA-PK (h)): −0.85; ATR inhibition (in words) (ATR/ATRIP (h)): no ATR inhibition was observed; IC50 (ATR/ATRIP (h)): > 10 µM | N#Cc1ccc2ncc(NC(=O)Nc3cccnc3)cc2c1 [QFASG-6, 1-(6-cyanoquinolin-3-yl)-3-(pyridin-3-yl) urea] |
| 3 | −0.85 | – | – | CC(=O)c1ccc(-c2cnn3ccc(C(N)=O)nc23)cc1 [QFASG-2] |
| > 10 | – | – | – | CC(=O)c1cn(-c2ccn3ncc(-c4cccc(C(=O)C5CNC5)c4)c3n2)cn1 [QFASG-1] |
| – | – | 98 | – | Cc1cc(N(C)c2ccc3ncc(NCC(=O)O)cc3c2)n(C2CC2)n1 [QFASG-4] |
